ChEMBL document CHEMBL5465560, “Selectivity Literature for EUbOPEN Chemogenomic Library” (2024)
One block for each compound: values may come before it.

What was measured:
[1] = target: Mitogen-activated protein kinase 7 (Homo sapiens) (UniProt Q13164); test: Selectivity interaction (Rxn Biology Kinase assay) EUB0001632a MAPK7; conditions: at 10 µM
[2] = target: Ribosomal protein S6 kinase alpha-4 (Homo sapiens) (UniProt O75676); conditions: at 10 µM
[3] = target: PAS domain-containing serine/threonine-protein kinase (Homo sapiens) (UniProt Q96RG2); test: Selectivity interaction (Kinase panel (Invitrogen)) EUB0000639a PASK; conditions: at 200 nM
[4] = target: Tyrosine-protein kinase CSK (Homo sapiens) (UniProt P41240); test: Selectivity interaction (ActivX KiNativ screen (kinase selectivity in THP-1 cell lysates)) EUB0000639a CSK; type: subcellular; conditions: lysate, at 1 µM
[5] = target: T1, Scaffold protein ILK (Homo sapiens) (UniProt Q13418); test: Selectivity interaction (ActivX KiNativ screen (kinase selectivity in THP-1 cell lysates)) EUB0000639a ILK; type: subcellular; conditions: lysate, at 0.01 µM
T1 sequence (whole entry): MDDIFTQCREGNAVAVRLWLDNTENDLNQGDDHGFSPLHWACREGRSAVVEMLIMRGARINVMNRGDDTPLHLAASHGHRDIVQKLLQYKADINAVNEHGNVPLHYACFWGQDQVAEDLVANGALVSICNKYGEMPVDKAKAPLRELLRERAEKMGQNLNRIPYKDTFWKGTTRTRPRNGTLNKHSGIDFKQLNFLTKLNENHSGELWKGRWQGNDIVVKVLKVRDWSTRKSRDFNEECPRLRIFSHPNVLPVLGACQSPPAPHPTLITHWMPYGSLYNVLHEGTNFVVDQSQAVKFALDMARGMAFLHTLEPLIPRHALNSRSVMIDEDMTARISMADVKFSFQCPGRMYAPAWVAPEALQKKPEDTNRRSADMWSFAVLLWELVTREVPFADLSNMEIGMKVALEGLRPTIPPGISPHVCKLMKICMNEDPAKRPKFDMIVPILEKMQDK

[6] = target: ALK tyrosine kinase receptor (Homo sapiens, UniProt Q9UM73); test: (§1) Selectivity interaction (KinomeScan (DiscoverX)) EUB0001049a ALK; conditions: at 1 µM
Sequence of ALK tyrosine kinase receptor (Q9UM73 19-1620 limits assumed): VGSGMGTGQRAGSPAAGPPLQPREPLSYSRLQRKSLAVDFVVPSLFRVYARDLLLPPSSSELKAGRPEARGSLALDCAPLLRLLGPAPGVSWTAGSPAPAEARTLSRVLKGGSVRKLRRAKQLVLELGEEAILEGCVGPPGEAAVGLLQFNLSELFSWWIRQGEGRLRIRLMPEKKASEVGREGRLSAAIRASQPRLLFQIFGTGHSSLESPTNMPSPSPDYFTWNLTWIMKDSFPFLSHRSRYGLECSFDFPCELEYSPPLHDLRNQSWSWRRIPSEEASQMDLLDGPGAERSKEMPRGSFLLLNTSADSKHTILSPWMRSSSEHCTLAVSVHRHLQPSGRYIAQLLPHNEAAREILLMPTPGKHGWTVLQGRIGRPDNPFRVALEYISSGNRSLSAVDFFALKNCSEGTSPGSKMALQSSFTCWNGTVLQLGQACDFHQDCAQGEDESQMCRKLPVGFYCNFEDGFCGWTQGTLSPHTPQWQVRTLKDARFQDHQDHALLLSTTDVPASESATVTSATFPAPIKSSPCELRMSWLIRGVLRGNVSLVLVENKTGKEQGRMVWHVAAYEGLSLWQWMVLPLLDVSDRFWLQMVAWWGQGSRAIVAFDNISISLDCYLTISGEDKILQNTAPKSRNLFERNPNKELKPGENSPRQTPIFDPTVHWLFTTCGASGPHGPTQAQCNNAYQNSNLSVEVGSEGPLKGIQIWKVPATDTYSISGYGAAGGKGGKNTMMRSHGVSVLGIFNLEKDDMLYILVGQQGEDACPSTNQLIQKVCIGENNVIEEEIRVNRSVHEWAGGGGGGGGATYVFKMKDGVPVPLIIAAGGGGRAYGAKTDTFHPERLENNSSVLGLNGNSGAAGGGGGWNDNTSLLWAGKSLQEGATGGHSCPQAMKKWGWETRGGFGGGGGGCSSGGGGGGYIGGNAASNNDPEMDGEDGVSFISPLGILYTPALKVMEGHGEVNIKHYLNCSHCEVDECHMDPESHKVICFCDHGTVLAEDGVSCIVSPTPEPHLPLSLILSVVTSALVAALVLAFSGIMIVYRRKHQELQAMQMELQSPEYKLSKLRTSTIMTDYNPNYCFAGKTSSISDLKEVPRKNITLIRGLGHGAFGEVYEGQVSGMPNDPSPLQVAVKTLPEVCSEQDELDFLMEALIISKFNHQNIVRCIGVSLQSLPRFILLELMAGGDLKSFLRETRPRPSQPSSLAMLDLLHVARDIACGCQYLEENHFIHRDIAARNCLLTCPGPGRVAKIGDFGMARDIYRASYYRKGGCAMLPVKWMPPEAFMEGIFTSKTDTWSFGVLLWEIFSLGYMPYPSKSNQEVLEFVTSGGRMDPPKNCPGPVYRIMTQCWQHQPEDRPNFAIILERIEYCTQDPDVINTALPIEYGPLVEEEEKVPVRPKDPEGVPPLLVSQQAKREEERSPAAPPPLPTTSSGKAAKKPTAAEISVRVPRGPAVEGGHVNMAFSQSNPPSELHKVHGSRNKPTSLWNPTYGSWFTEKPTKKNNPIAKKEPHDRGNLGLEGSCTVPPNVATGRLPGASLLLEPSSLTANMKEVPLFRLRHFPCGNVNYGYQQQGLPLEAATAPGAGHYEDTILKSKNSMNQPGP

[7] = tested on: ALK tyrosine kinase receptor (Homo sapiens), Q9UM73 [C1156Y]; test: as §1; conditions: at 1 µM
[8] = tested on: ALK tyrosine kinase receptor (Homo sapiens), Q9UM73 [L1196M]; test: as §1; conditions: at 1 µM
[9] = tested on: Phosphatidylinositol 4,5-bisphosphate 3-kinase catalytic subunit alpha isoform (Homo sapiens), P42336 [C420R]; test: (§2) Selectivity interaction (Ambit KINOMEscan and KiNATiv profiling in Jurkat cells) EUB0000090b PIK3CA; type: cell-based; conditions: at 1 µM
Sequence of Phosphatidylinositol 4,5-bisphosphate 3-kinase catalytic subunit alpha isoform (Homo sapiens), P42336 [C420R] (P42336 whole entry C420R, canonical isoform): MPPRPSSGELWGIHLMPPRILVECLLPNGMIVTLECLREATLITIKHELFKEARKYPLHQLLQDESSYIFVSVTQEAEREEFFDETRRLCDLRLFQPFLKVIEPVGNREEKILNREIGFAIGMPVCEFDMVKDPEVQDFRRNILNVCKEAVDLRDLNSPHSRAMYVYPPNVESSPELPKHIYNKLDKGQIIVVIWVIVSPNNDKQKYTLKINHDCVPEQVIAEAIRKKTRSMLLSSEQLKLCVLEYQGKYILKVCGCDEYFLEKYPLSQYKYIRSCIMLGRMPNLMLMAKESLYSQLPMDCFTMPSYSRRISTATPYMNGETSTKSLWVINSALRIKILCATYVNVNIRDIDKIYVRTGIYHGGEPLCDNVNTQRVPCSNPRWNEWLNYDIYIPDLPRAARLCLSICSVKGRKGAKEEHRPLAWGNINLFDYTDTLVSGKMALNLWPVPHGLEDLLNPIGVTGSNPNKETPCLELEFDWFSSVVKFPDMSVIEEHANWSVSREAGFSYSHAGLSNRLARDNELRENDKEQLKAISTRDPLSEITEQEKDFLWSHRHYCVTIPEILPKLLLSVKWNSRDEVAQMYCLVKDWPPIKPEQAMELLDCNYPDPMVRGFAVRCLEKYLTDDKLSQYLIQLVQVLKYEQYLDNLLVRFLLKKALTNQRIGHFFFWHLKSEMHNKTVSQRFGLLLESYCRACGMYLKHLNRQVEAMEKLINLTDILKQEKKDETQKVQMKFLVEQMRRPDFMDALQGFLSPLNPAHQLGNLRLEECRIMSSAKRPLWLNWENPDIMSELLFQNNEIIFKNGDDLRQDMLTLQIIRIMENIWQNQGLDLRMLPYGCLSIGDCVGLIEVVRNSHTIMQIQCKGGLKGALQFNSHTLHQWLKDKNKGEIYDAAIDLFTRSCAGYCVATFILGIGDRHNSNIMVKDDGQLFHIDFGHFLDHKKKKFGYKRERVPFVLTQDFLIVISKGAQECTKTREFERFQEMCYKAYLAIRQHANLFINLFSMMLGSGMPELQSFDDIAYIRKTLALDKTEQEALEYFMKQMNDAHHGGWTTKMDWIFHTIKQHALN

[10] = tested on: Phosphatidylinositol 4,5-bisphosphate 3-kinase catalytic subunit alpha isoform (Homo sapiens), P42336 [E542K]; test: as §2; type: cell-based; conditions: at 1 µM
[11] = tested on: Phosphatidylinositol 4,5-bisphosphate 3-kinase catalytic subunit alpha isoform (Homo sapiens), P42336 [E545K]; test: as §2; type: cell-based; conditions: at 1 µM
[12] = tested on: Phosphatidylinositol 4,5-bisphosphate 3-kinase catalytic subunit alpha isoform (Homo sapiens), P42336 [H1047Y]; test: as §2; type: cell-based; conditions: at 1 µM
[13] = tested on: Phosphatidylinositol 4,5-bisphosphate 3-kinase catalytic subunit alpha isoform (Homo sapiens), P42336 [Q546K]; test: as §2; type: cell-based; conditions: at 1 µM
[14] = tested on: Phosphatidylinositol 4,5-bisphosphate 3-kinase catalytic subunit alpha isoform (Homo sapiens), P42336 [M1043I]; test: as §2; type: cell-based; conditions: at 1 µM
[15] = tested on: Phosphatidylinositol 4,5-bisphosphate 3-kinase catalytic subunit alpha isoform (Homo sapiens), P42336 [I800L]; test: as §2; type: cell-based; conditions: at 1 µM
[16] = target: Phosphatidylinositol 4,5-bisphosphate 3-kinase catalytic subunit alpha isoform (Homo sapiens) (UniProt P42336); test: as §2; type: cell-based; conditions: at 1 µM
[17] = tested on: Phosphatidylinositol 4,5-bisphosphate 3-kinase catalytic subunit alpha isoform (Homo sapiens), P42336 [E545A]; test: as §2; type: cell-based; conditions: at 1 µM
[18] = tested on: Phosphatidylinositol 4,5-bisphosphate 3-kinase catalytic subunit alpha isoform (Homo sapiens), P42336 [H1047L]; test: as §2; type: cell-based; conditions: at 1 µM
[19] = target: Cyclin-dependent kinase 18 (Homo sapiens) (UniProt Q07002); test: Selectivity interaction (Ambit KINOMEscan and KiNATiv profiling in Jurkat cells) EUB0000090b CDK18; type: cell-based; conditions: at 1 µM
[20] = target: T2, Serine/threonine-protein kinase tousled-like 1 (Homo sapiens) (UniProt Q9UKI8); test: Selectivity interaction (KinomeScan (DiscoverX)) EUB0000655a TLK1; conditions: at 10 µM
T2 sequence (whole entry): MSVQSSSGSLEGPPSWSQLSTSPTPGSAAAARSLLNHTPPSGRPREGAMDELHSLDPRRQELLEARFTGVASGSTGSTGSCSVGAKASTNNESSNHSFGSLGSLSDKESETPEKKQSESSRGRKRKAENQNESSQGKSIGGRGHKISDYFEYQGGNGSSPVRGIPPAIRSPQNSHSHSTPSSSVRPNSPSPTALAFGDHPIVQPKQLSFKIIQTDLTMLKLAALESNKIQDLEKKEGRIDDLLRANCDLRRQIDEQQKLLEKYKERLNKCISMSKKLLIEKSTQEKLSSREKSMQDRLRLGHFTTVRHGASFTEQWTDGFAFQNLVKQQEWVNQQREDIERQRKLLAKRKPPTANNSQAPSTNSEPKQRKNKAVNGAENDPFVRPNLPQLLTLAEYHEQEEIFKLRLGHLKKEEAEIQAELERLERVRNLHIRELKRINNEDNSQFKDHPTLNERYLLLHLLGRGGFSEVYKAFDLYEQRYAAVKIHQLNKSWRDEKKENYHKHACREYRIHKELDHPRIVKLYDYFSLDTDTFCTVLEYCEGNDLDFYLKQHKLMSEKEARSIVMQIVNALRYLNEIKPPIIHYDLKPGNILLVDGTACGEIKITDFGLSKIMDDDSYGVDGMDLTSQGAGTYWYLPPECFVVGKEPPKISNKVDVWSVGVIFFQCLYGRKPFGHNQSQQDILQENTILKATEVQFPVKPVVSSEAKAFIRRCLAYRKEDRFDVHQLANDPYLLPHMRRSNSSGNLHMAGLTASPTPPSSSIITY

[21] = target: Protein arginine N-methyltransferase 1 (Homo sapiens, UniProt Q99873); test: Selectivity interaction (Transferase panel (protein, RNA, and DNA methyltransferases. and EP300 (acetyltransferase))) EUB0000270b PRMT1
Sequence of Protein arginine N-methyltransferase 1 (Q99873 whole entry, looked up): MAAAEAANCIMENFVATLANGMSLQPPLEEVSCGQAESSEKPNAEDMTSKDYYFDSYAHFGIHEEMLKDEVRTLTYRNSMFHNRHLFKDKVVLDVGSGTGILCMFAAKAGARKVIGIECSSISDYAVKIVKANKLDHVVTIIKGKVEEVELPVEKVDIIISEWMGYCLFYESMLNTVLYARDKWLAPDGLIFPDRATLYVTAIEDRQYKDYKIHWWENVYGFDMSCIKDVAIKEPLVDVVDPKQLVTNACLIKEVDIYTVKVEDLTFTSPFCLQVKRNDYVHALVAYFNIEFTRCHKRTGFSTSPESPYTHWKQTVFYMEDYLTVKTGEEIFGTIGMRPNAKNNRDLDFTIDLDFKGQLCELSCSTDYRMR

[22] = target: Mitogen-activated protein kinase 11 (Homo sapiens) (UniProt Q15759); conditions: at 10 µM
[23] = tested on: Epidermal growth factor receptor (Homo sapiens), P00533 [G719S]; test: (§3) Selectivity interaction (KinomeScan (DiscoverX)) EUB0001619a EGFR; conditions: at 1 µM
[24] = tested on: Epidermal growth factor receptor (Homo sapiens), P00533 [L858R,T790M]; test: as §3; conditions: at 1 µM
[25] = tested on: Epidermal growth factor receptor (Homo sapiens), P00533 [UNDEFINED MUTATION]; test: as §3; conditions: at 1 µM
[26] = tested on: Epidermal growth factor receptor (Homo sapiens), P00533 [T790M]; test: as §3; conditions: at 1 µM
[27] = tested on: Epidermal growth factor receptor (Homo sapiens), P00533 [L861Q]; test: as §3; conditions: at 1 µM
[28] = tested on: Epidermal growth factor receptor (Homo sapiens), P00533 [G719C]; test: as §3; conditions: at 1 µM
Sequence of Epidermal growth factor receptor (Homo sapiens), P00533 [G719C] (P00533 whole entry G719C): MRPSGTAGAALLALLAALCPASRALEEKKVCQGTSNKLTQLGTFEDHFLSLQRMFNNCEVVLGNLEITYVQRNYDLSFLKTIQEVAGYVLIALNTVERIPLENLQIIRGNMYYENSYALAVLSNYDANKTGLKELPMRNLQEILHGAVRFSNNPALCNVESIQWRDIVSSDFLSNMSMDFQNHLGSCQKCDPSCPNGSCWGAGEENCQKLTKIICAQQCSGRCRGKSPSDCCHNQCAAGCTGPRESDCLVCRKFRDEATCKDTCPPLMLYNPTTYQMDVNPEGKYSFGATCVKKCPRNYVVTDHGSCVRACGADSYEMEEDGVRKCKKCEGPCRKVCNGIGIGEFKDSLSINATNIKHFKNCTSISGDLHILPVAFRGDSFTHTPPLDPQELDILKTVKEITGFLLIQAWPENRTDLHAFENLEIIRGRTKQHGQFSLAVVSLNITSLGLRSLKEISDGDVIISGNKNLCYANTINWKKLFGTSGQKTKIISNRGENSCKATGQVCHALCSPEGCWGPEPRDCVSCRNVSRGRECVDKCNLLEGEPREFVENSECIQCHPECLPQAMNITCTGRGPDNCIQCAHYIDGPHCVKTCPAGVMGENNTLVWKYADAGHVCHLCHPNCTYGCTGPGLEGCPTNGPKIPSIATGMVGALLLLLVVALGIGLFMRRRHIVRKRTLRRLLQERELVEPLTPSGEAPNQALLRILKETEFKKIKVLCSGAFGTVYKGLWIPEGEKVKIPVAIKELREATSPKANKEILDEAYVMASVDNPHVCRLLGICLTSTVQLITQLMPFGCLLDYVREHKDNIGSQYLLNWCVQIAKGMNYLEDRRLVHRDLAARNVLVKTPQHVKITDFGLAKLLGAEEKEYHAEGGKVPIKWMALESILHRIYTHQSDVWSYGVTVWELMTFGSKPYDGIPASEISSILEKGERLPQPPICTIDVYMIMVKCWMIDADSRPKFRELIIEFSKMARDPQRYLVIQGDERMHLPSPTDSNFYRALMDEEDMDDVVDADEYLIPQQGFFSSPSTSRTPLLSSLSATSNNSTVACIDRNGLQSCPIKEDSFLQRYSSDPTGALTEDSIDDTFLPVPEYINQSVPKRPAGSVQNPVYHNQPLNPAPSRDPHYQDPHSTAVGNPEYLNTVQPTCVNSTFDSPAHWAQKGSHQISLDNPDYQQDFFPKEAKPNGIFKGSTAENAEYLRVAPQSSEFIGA

Sequence of Ribosomal protein S6 kinase alpha-4 (Homo sapiens) (O75676 whole entry, looked up, the tested form may be a part): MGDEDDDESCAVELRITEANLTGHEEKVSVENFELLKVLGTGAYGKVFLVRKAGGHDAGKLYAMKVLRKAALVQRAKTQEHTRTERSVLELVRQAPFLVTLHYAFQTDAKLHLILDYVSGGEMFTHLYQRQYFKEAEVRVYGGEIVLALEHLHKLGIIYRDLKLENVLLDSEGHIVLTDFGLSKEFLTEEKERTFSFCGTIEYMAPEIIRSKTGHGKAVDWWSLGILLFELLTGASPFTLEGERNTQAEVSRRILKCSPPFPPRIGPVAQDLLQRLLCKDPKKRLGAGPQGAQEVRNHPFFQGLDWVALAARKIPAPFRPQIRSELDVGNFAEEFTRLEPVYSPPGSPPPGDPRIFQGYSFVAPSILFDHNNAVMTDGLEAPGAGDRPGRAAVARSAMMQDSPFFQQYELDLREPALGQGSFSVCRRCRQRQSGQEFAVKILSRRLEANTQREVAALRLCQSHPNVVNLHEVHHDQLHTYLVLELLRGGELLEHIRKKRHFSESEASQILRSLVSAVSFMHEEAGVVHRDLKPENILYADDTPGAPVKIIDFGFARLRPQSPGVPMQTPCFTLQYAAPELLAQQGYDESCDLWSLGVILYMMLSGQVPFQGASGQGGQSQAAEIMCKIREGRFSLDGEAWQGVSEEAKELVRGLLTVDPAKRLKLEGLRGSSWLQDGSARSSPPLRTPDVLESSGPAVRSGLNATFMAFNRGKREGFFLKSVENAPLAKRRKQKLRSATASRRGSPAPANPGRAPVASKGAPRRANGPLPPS

% of inhibition [1]: -29.8%
SMILES: Cn1cc(-n2cnc3c(NCc4nc5cc(Cl)c(Cl)cc5[nH]4)nc(N4CCOCC4)nc32)cn1

% of control [2]: 100%
SMILES: CCN(CC)CCCCNc1ncc2cc(-c3cc(OC)cc(OC)c3)c(NC(=O)NC(C)(C)C)nc2n1

% of inhibition [3]: 7.59%
% of inhibition [4]: 0.5%
% of inhibition [5]: 3.1%
SMILES: CC[C@@H]1[C@H](F)C(=O)N[C@@H]1COc1nccc2cc(C(N)=O)c(OC)cc12 [ZIMLOVISERTIB]

SMILES: COc1cc(Nc2nc(C)cc(-c3cnn4nc(OC)ccc34)n2)cc(C(F)(F)F)c1
% of control [6]: 94%
% of control [7]: 89%
% of control [8]: 100%

SMILES: CN(C)C/C=C/C(=O)Nc1ccc(C(=O)N2CCCC(Nc3ncc(Cl)c(-c4c[nH]c5ccccc45)n3)C2)cc1 (centres undefined)
% of control [9]: 87%
% of control [10]: 93%
% of control [11]: 99%
% of control [12]: 95%
% of control [13]: 98%
% of control [14]: 100%
% of control [15]: 89%
% of control [16]: 92%
% of control [17]: 83%
% of control [18]: 100%
% of control [19]: 59%

SMILES: CN(C)CCOc1ccc(-c2nc(-c3ccncc3)c(-c3ccc4c(c3)CC/C4=N\O)[nH]2)cc1
% of control [20]: 99%

% activity ([21]; at 1 µM): > 90%
% activity ([21]; at 10 µM): > 80%
SMILES: Cc1cc(CN)cc(C)c1-c1ncn(C)c1-c1cncn1C

SMILES: Cc1cc([C@@H](C)Nc2ccccc2C(=O)O)c2nc(N3CCOCC3)cc(=O)n2c1 [AZD-6482]
% of control [22]: 91%

SMILES: N#Cc1cccc(-c2c[nH]c3ncnc(N4CCOCC4)c23)c1
% of control [23]: 100%
% of control [24]: 100%
% of control [25]: 77%
% of control [26]: 81%
% of control [27]: 86%
% of control [28]: 84%
